From patent US20100003217A1, “Compounds and Pharmaceutical Compositions for the Treatment of Viral Infections” (priority 2008, published 2010)

Experiments:
[1] = Cytotoxicity assay (MTS), GS4.1 cells; format: cell-based, human; details: human, 3 days (NS4A-ELISA Assay)
Procedure: (§1) The cytotoxicity assay measures the viability of cells after treatment with a test compound for 3 days in either GS4.1 cells or Zluc cells. […] The cytotoxicity assay is summarized as follows. Ninety-six-well tissue culture plates were seeded with GS4.1 or Zluc cells. Antiviral compound solutions were made up freshly in medium as 2×-concentrated stocks. Eight additional 3-fold drug dilutions were prepared from these stocks in medium for a total of 9 dilutions. At least four hours after the cells were seeded, drug treatment was initiated by adding one volume of each 2×-concentrated drug dilution to one volume of cells/medium in the tissue culture plates. Cells were then incubated for 3 days at 37° C./5% CO2. After 3 days of treatment, the CellTiter 96® Aqueous One Solution cell proliferation assay (Promega) was performed by adding the MTS solution to each well. The plates were then incubated at 37° C./5% CO2 for 3.5 hours. Plates were then read in a Victor^3V 1420 multilabel counter (Perkin Elmer) and CC50 concentrations were determined using Microsoft Excel and XLfit 4.1 software.

[2] = tested on: HCV genotype 1b replicon (GS4.1 cells); experiment: HCV replicon assay (NS4A ELISA); format: cell-based, hepatitis C virus; details: Hepatitis C virus, 72 h, 3 days
Procedure: The biological activity of Compound 1, diastereomer 1 and diastereomer 2 was measured by monitoring expression of the NS4A protein by enzyme-linked immunosorbent assay (ELISA) and by luciferase assay as described below:
The HCV replicon assay measures the ability of a test compound to inhibit HCV replication in cell culture after 3 days of treatment in a human hepatoma cell line (Huh-7) bearing the HCV genotype 1b replicon (GS4.1 cells). The inhibition of HCV replication was measured by quantification of viral NS4A protein using an enzyme-linked immunosorbent assay (ELISA). […] Additionally, the replicon contains the neomycin phosphotransferase gene under the control of the HCV promoter (Source: Dr. Christoph Seeger, Fox Chase Cancer Center, Philadelphia, Pa.).
The NS4A ELISA assay is summarized as follows. Ninety-six-well tissue culture plates were seeded with GS4.1 cells. Antiviral compound solutions were made up freshly in medium as 2×-concentrated stocks. Eight additional 3-fold drug dilutions were prepared from these stocks in medium for a total of 9 dilutions. At least four hours after GS4.1 cells were seeded, drug treatment was initiated by adding one volume of each 2× concentrated drug dilution to one volume of cells/medium in the tissue culture plates. Cells were then incubated for 3 days at 37° C./5% CO2.
The media/compound was then removed from the plates and cells were fixed with acetone:methanol, washed three times with a wash solution, and then blocked for 1 hour with 10% fetal bovine serum in a balanced salt solution. Cells were washed three times and incubated with an anti-hepatitis C NS4A monoclonal antibody (Virogen Corp.) for 2 hours at 37° C. […] The reaction was stopped with diluted sulfuric acid (Mallinckrodt Chemicals) and absorbance measured on a Victor^3V 1420 multilabel counter (Perkin Elmer). EC50 values were calculated from dose response curves from the resulting best-fit equations determined by Microsoft Excel and XLfit 4.1 software.

GS4.1 cells = experiment: Cytotoxicity (MTS assay), GS4.1 cells, Example 18; format: cell-based, human; details: wild-type or S282T replicon cells treated with up to 100 μM
Procedure: (§2) Cells were plated and treated with inhibitors as described above.

[3] = Cytotoxicity (MTS assay), GS4.1 cells, Example 18; format: cell-based, human; details: human, GS4.1 cells (wild-type); GS4.1 (wild-type), MTS assay, N = 3
Procedure: as §2

CYP2B6 = CYP2B6 (Homo sapiens, UniProt P20813); experiment: Incubation with human recombinant CYP450 supersomes, 2B6; format: in vitro ADME; details: CYP450 2B6 supersomes, 60 min, 10 μM, average of two experiments
Chain of CYP2B6 (P20813 whole entry): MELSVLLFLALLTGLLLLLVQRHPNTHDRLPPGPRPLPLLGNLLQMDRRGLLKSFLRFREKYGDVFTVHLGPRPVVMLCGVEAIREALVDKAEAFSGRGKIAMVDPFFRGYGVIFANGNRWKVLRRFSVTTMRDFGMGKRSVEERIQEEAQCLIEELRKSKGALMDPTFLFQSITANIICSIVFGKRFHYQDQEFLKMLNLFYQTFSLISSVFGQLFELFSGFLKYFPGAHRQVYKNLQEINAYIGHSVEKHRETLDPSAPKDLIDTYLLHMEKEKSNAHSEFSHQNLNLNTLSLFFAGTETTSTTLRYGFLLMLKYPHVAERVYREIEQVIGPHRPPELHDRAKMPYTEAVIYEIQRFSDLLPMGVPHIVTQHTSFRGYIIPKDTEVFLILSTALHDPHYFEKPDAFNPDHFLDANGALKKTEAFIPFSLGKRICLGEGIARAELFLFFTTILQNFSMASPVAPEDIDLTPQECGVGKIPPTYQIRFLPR
Procedure: Supersomes—Incubations were conducted in a final volume of 0.1 mL reaction buffer (50-100 mM potassium phosphate, pH 7.4 or 100 mM Tris-HCL, pH 7.4) according to protocol provided with each CYP450 supersome. Each reaction contained […] of CYP450 supersome, 1.3 mM NADP^+, 3.3 mM glucose-6-phosphate, 0.4 U/mL glucose-6-phosphate dehydrogenase, 3.3 mM MgCl2 and 10 μM Compound 1. Following incubation for 60 min at 37° C., 100 μL of stop solution (acetonitrile:methanol; 1:1) was added and samples centrifuged for 10 min at 10,000×g. The supernatant was then dried and reconstituted in 10 mM potassium phosphate, pH 5, further transferred to an HPLC glass vial and analyzed by HPLC-UV (described above).

[4] = Rat plasma pharmacokinetics of total radioactivity after [^14C]-Compound 1; format: in vivo, male Sprague-Dawley rats
Procedure: A preliminary rat metabolism study was conducted with radiolabeled Compound 1. The compound was labeled with [^14C] in the C-8 position of the guanine moiety. The objectives of the study were to determine, 1) the plasma pharmacokinetics of total radioactivity, 2) the time-course of total radioactivity and the amount of 2′-C-methyl guanosine-5′-TP in liver, 3) the major route of excretion, and 4) the metabolic profile in excreta, liver, and plasma.
Isotopically diluted [^14C]-Compound 1 was administered intravenously to male Sprague-Dawley rats at 50 mg/kg or by oral gavage at 100 mg/kg.
The plasma concentration-time data for total radioactivity was analyzed using Microsoft® Office Excel 2003 to obtain the area under the concentration-time curve (AUC). AUC0-24 (area under the concentration-time curve from 0 to 24 h after dosing) was calculated using the linear trapezoidal rule and nominal sampling times. For the IV dose group, concentration at time zero was extrapolated from the concentration data for the first two time points. The maximum (peak) plasma concentrations (Cmax) and the time to peak concentrations (tmax) were the observed values. Descriptive statistics were prepared in Excel.
Radioanalyses of plasma samples were conducted. The plasma concentration data for total radioactivity expressed as μg equivalents/mL are summarized below: […]

[5] = Cytotoxicity assay (MTS), Zluc cells; format: cell-based, human; details: human; Zluc cells, 3 days (Luciferase Assay columns)
Procedure: as §1

For `CC(C)(CO)C(=O)SCCOP(=O)(NCc1ccccc1)OC[C@H]1O[C@@H](n2cnc3c(=O)[nH]c(N)nc32)[C@](C)(O)[C@@H]1O` (mixture of isomers) [Compound 1, 3-hydroxy-2,2-dimethyl-thiopropionic acid S-(2-{[(2R,3R,4R,5R)-5-(2-amino-6-oxo-1,6-dihydro-purin-9-yl)-3,4-dihydroxy-4-methyl-tetrahydro-furan-2-ylmethoxy]-benzylamino-phosphoryloxy}-ethyl) ester], the CC50 at 3 days [1] was greater than 100 µM, the EC50 [2] was 0.379 ± 0.083 µM and the “in vitro cytotoxicity (MTS)” value (GS4.1 cells) was “no evidence of in vitro cytotoxicity”. For the same compound, the CC50 at 3 days [3] was greater than 100 µM, the “% Residual Compound 1” value (CYP2B6) was 108% and the “AUC0-24 of plasma total radioactivity” value ([4]; IV 50 mg/kg [^14C]-Compound 1) was 36.0 hr.μg equivalent/mL. The “AUC0-24 of plasma total radioactivity” value ([4]; PO 100 mg/kg [^14C]-Compound 1) was 15.4 hr.μg equivalent/mL and the CC50 at 3 days [5] was greater than 100 µM.
